Experiments:
[1] = Solubility and stability in alkyl diesters of aliphatic dicarboxylic acids; assay type: physicochemical
[2] = cited from earlier work

Solubility and stability in alkyl diesters of aliphatic dicarboxylic acids [1]	Compound	Solubility in benzyl alcohol, chloroform, acetone, and acetonitrile [2]	Solubility in water [2]	Solubility in methanol and ethanol ([2]; methanol and ethanol)
particularly soluble and stable	CO[C@H]1C[C@@H]2CC[C@@H](C)[C@@](O)(O2)C(=O)C(=O)N2CCCC[C@H]2C(=O)O[C@H]([C@H](C)C[C@@H]2CC[C@@H](O)[C@H](OC)C2)CC(=O)[C@H](C)/C=C(\C)[C@@H](O)[C@@H](OC)C(=O)[C@H](C)C[C@H](C)/C=C/C=C/C=C/1C [Sirolimus]	soluble	insoluble	–
particularly soluble and stable	CC[C@@H]1/C=C(\C)C[C@H](C)C[C@H](OC)[C@H]2O[C@@](O)(C(=O)C(=O)N3CCCC[C@H]3C(=O)O[C@H](/C(C)=C/[C@@H]3CC[C@H](Cl)[C@H](OC)C3)[C@H](C)[C@@H](O)CC1=O)[C@H](C)C[C@@H]2OC [Pimecrolimus]	–	insoluble	soluble
particularly soluble and stable	C=CC[C@@H]1/C=C(\C)C[C@H](C)C[C@H](OC)[C@H]2O[C@@](O)(C(=O)C(=O)N3CCCC[C@H]3C(=O)O[C@H](/C(C)=C/[C@@H]3CC[C@@H](O)[C@H](OC)C3)[C@H](C)[C@@H](O)CC1=O)[C@H](C)C[C@@H]2OC [Tacrolimus]	soluble	insoluble	–

From patent US20220362232A1, “TOPICAL COMPOSITIONS COMPRISING A MACROLIDE IMMUNOSUPPRESSANT” (BAUSCH HEALTH IRELAND LIMITED, priority 2020, published 2022)
